Results on three substances are retold here after patent US5457092A, “Methods of promoting bone growth in mammals comprising administration of modified parathyroid hormone” (Gesellschaft fur Biotechnologische Forschung mbH (GBF), priority 1987, dated 1995).

Assay [1] has as its system ROS 17/2.8 osteoblast-like cells. The assay is described as follows: Cyclic AMP production in ROS 17/2.8 osteoblast-like cells. The format is cell-based, rat. As to conditions: for Cyclic AMP, effect of fragment (experimental value/control value): control 29 ± 5.2 pmol/mg of protein. On the procedure: When cultures of the widely used model for osteoblasts, the osteoblast-likeclone of rat osteosarcoma, ROS 17/2.8 (Endocrinology (Baltimore), 107 (1980) 1494-1503=12; Majeska et al.), were incubated with full-length PTH and PTH fragments (Table 4), cyclic AMP production was stimulated only by bPTH(1-84) and hPTH(1-34), whereas hPTH(25-39), hPTH(27-48), hPTH(28-48) and hPTH(34-47) were ineffective.

Assay [2] concerns rat organs (epiphysis, diaphysis, kidney). The assay is described as follows: [3H]thymidine incorporation into DNA in rat organs after i.p. injection. As to conditions: 22-24 h after injection. The format is in vivo. On the procedure:
FIG. 12 is a graph showing the time course of stimulation by hPTH (1-34) of DNA synthesis in rat organs. Female rats (20-25 days old) were injected i.p. with hPTH-(1-34) (2 μg/rat). At 2 h before the times indicated, the rats were killed and organs were removed and incubated in 2 ml of Dulbecco's modified Eagle's medium containing 5 μl of [^3 H]thymidine. (Amersham: 5 Ci/mmol) for 2 h, then washed with medium and homogenized in deionized distilled water. The total uptake of [^3 H]thymidine and acid-insoluble radioactivity was measured, as well as DNA content, as described below. , Diaphysis; O, epiphysis; Δ; kidney. P<0.01 versus controls.
The pieces were then incubated for 2 h more (the time indicated in FIG. 12) with [^3 H]thymidine (5 μci/ml; 5 Ci/mmol) at 37° C. in Dulbecco's modified Eagle's medium under an atmosphere Of […] /95% air. Total [^3 H]thymidine uptake and incorporation into trichloroacetic acid-insoluble material was measured as described in Biochem. J., 214 (1983) 293-298 (16; Somjen et al.). At no time including the 22 24 h pulse, was there any significant change in the total uptake of [^3 H]thymidine which reflects changes in the thymidine pool which, in turn, could account for changes in incorporation. DNA was determined by the Burton method; cf. Biochem. J., 62 (1956) 315-323 (17; Burton).
To corroborate that under the circumstances of these experiments the increase in CK specific activity in bone is indeed a valid marker of cell proliferation, changes in DNA synthesis were measured by [^3 H]thymidine incorporation; cf. Biochem. J., 272 (1990) 781-785 (18; Somjen et al.). The earliest time at which PTH increased [^3 H]thymidine incorporation was determined by in-jecting rats with an optimal dose of 2 μp of PTH(1-34)/rat, equivalent to 13 nM (FIG. 14) and measuring 2 h pulses of [^3 H)thymidine incorporation into DNA (FIG. 12).
(In general: Incorporation of labelled thymidine or its analogues reports DNA synthesis.)

Assay [3] deals with osteoblast enriched rat embryo calvaria cell cultures. The assay can be described thus: CK specific activity in rat embryo calvaria cell cultures. Format: cell-based. The note with it: for CK specific activity, effect of fragment (experimental value/control value): 100 nM, 24 h, control 457 ± 46 nmol/min per mg of protein; for increase of CK activity (in words): treated for 24 h. In outline:
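Osteoblast-enriched rat embryo calvaria cultures stimulated with PTH fragments from the central portion of the molecule. Cyclic AMP measured 15 min after stimulation; CK specific activity measured 24 h after stimulation. Values are means ±S.E.M., N≥5, compared with controls by Student's T test.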

The subject of assay [4] is rat organs (epiphysis, diaphysis, kidney). The assay can be described thus: [3H]thymidine incorporation into DNA in rat organs after i.p. injection. The format is in vivo. As to conditions: rat; for [^3 H]thymidine incorporation into DNA, Kidney: control 9.0 ± 2.1; for [^3 H]thymidine incorporation into DNA, Diaphysis: control 24.1 ± 3.8; for [^3 H]thymidine incorporation into DNA, Epiphysis: control 25.8 ± 5.2.

Assay [5] deals with ROS 17/2.8 osteoblast-like cells. The assay can be described thus: DNA synthesis in ROS 17/2.8 osteoblast-like cells. Format: cell-based, rat. The note with it: control 392 ± 58 c.p.m./μg of DNA.
For assay [6], the system named is rat epiphysial cartilage cell cultures. The assay is described as follows: DNA synthesis in rat epiphysial cartilage cell cultures. Format: cell-based. As to conditions: for [^3 H]Thymidine incorporation into DNA: 100 nM, control 350 ± 25.
[7] abbreviates: 22-24 h after injection of 1.25 μg.
Setting [8] is: 22-24 h after injection of 0.876 μg.
The mark [9] stands for this setting: 22-24 h after injection of 0.875 μg.

As for “hPTH(28-48): mid-regional PTH fragment 28-48, human source (LQDVHNFVALGAPLAPRDAGS; Parathyroid hormone; UniProt P01270 59-79, looked up, fragment)”, the “stimulation of cyclic AMP production (in words)” value in assay [1] is “ineffective”. The “Cyclic AMP, effect of fragment (experimental value/control value)” value in assay [1] (400 nM) was determined as 1.18 ± 0.28. Further, the “potency in stimulating [^3 H]thymidine incorporation in diaphysis and epiphysis (in words)” value (from here on “potency in stimulating”) in assay [2] was “as potent as bPTH(1-84)”. Also, in assay [3], the “CK specific activity, effect of fragment (experimental value/control value)” value turned out to be 2.15 ± 0.15 and the “increase of CK activity (in words)” value is reported as “maximally active”. Further, in assay [4] (setting [7]), the “[^3 H]thymidine incorporation into DNA, Kidney” value is reported as 11.2 ± 2.7 c.p.m./pg of DNA; the “[^3 H]thymidine incorporation into DNA, Diaphysis” value is on record as 39.1 ± 8.1 c.p.m./pg of DNA; the “[^3 H]thymidine incorporation into DNA, Epiphysis” value is on record as 46.7 ± 7.4 c.p.m./pg of DNA. For the same substance, the “[^3 H]Thymidine incorporation, effect of fragment (experimental value/control value)” value in assay [5] (400 nM) is recorded as 1.56 ± 0.12. In addition, the “[^3 H]Thymidine incorporation into DNA” value in assay [6] is listed as 731 ± 44 c.p.m./plate.
With “hPTH(25-39): PTH fragment 25-39, human source (RKKLQDVHNFVALGA; Parathyroid hormone; UniProt P01270 56-70, looked up, fragment)”, in assay [1], the “stimulation of cyclic AMP production (in words)” value is “ineffective”. In assay [1] (200 nM), the “Cyclic AMP, effect of fragment (experimental value/control value)” value is recorded as 1.05 ± 0.15. The “potency in stimulating” value in assay [2] was “as potent as hPTH(28-48)”. Moreover, the “CK specific activity, effect of fragment (experimental value/control value)” value in assay [3] was 2.15 ± 0.24. Also, in assay [4] (setting [8]), the “[^3 H]thymidine incorporation into DNA, Kidney” value is 11.2 ± 1.9 c.p.m./pg of DNA; the “[^3 H]thymidine incorporation into DNA, Diaphysis” value is recorded as 44.8 ± 4.5 c.p.m./pg of DNA; the “[^3 H]thymidine incorporation into DNA, Epiphysis” value is listed as 48.4 ± 6.6 c.p.m./pg of DNA. In addition, the “[^3 H]Thymidine incorporation, effect of fragment (experimental value/control value)” value in assay [5] (200 nM) is given as 1.36 ± 0.08. In assay [6], the “[^3 H]Thymidine incorporation into DNA” value was found to be 544 ± 44 c.p.m./plate.
For “hPTH(34-47): PTH fragment 34-47, human source; comparative example (FVALGAPLAPRDAG; Parathyroid hormone; UniProt P01270 65-78, looked up, fragment) [reference compound]”, the “stimulation of cyclic AMP production (in words)” value in assay [1] is “ineffective”. For the same substance, the “Cyclic AMP, effect of fragment (experimental value/control value)” value in assay [1] (500 nM) is 0.88 ± 0.31. Moreover, in assay [2], the “potency in stimulating” value was “inactive”. Moreover, in assay [3], the “increase of CK activity (in words)” value is “inactive”. Further, in assay [4] (setting [9]), the “[^3 H]thymidine incorporation into DNA, Kidney” value is recorded as 9.0 ± 1.9 c.p.m./pg of DNA; the “[^3 H]thymidine incorporation into DNA, Diaphysis” value was 28.6 ± 4.2 c.p.m./pg of DNA; the “[^3 H]thymidine incorporation into DNA, Epiphysis” value is 28.0 ± 7.2 c.p.m./pg of DNA. Besides, the “[^3 H]Thymidine incorporation, effect of fragment (experimental value/control value)” value in assay [5] (500 nM) came to 1.05 ± 0.11. In assay [6], the “stimulation of DNA synthesis (in words)” value is on record as “stimulated by all molecules tested except” and the “[^3 H]Thymidine incorporation into DNA” value is given as 356 ± 75 c.p.m./plate.
